According to patent publication US6043248A, “Alpha-substituted pyrimidine-thioalkyl and alkylether compounds as inhibitors of viral reverse transcriptase” (priority 1997, dated 2000):

The compounds below were run against T1, P236L viral reverse transcriptase (Human immunodeficiency virus type 1 group M subtype B, UniProt P04585, P823L) (assay: inhibition of viral reverse transcriptase (P236L), cell free assay). Conditions: 30 minutes at 37° C., read-out: IC50 (Table I, P236L).
T1 construct: P236L viral reverse transcriptase is obtained by PNAS 90: 4713-4717 (1993); made in house
Assay type: biochemical
Source text: The utility of the pyrimidine-thioalkyl and alkylether anti-AIDS compounds of Formula IA of this invention can be determined by their ability to inhibit viral reverse transcriptase, an enzyme essential for human immunodeficiency virus replication. This enzyme has characteristics which differentiate it from other known cellular polymerases and it is a unique enzyme which is not found in uninfected cells. Viral reverse transcriptase (Wild Type) is found in extracts from bacterial clones prepared according to the procedure described in AIDS Virus Reverse Transcriptase defined by high level expression in Escherichia coli, EMBO J. 6:3133-3137 (1987). P236L viral reverse transcriptase is obtained by PNAS 90: 4713-4717 (1993). Inhibition of this enzyme is determined in a cell free assay which measures the level of radioactive precursors incorporated into DNA. Extracts prepared according to the procedure of Science, 1125-1129 (1981) are incubated in a mixture of inhibitor, 20 mM dithiothreitol, 60 mM sodium chloride, 0.05% NP-40, 10 mM magnesium chloride, 50 mM Tris pH 8.3, 10 μM [^35 S]-labeled deoxynuleoside-5'-triphosphate, 10 μg/ml RNA template (poly rC or poly rG) and 5 μg/ml DNA primer (oligo dG or oligo dT) for 30 minutes at 37° C. Incorporation of radio-labeled percursor is determined by spotting aliquots of the reaction mixture on DE81 paper, washing the papers to remove unincorporated percursor, drying and determining counts. The results (IC50 means the concentration, in μM of drug, required to inhibit the reverse transcriptase activity (P236L and Wild Type) to the extent of 50%) of various assay(s) are combined and reported as % inhibition and/or IC50 (calculated) in Table I (P236L) and Table II (Wild Type).

Row | Structure (SMILES) | IC50
1 | Nc1cc(Cl)nc(S(=O)(=O)Cc2cccc(Br)c2)n1 [Example 69, 4-amino-6-chloro-2-(3-bromophenylmethylsulfonyl)pyrimidine] | 20 µM
2 | Nc1cc(Cl)nc(SCC2=Cc3ccccc3CC2)n1 [Example 171, 4-Amino-6-chloro-2-[[(3,4-dihydro-1-naphthalen-2-yl)methyl]thio]-pyrimidine] | 1 µM
3 | N#Cc1ccnc(CSc2nc(N)cc(Cl)n2)c1 [Example 128, 4-amino-6-chloro-2-[2-(4-cyano)pyridylmethylthio]-pyrimidine] | 1 µM
4 | CC(C)Cc1ccnc(CSc2nc(N)cc(Cl)n2)c1 [Example 124, 4-amino-6-chloro-2-[2-(4-(2-methylpropyl))pyridylmethylthio]-pyrimidine] | 40 µM
5 | Nc1cc(Cl)nc(SCc2ccc3c(c2)CCO3)n1 [Example 168, 4-Amino-6-chloro-2-[(2,3-dihydrobenzofuran-5-ylmethyl)thio]pyrimidine] | 0.05 µM
6 | CC(C)Oc1ccnc(CSc2nc(N)cc(Cl)n2)c1 [Example 126, 4-amino-6-chloro-2-[2-(4-isopropoxy)pyridylmethylthio]-pyrimidine] | 0.05 µM
7 | Nc1cc(Cl)nc(SCc2cccc(Br)c2)n1 [Example 43, 4-amino-6-chloro-2-(3-bromophenylmethylthio)-pyrimidine] | 0.14 µM
8 | CCCNc1cc(Cl)nc(SCc2ccccc2)n1 [Example 87, 4-propylamino-6-chloro-2-(benzylthio)-pyrimidine] | 100 µM
9 | Nc1cc(Cl)nc(SCc2c(F)cccc2F)n1 [Example 34, 4-amino-6-chloro-2-(2,6-difluorophenylmethylthio)-pyrimidine] | 10 µM
10 | Nc1cc(Cl)nc(SCc2cccc3ncccc23)n1 [Example 183, 4-Amino-6-chloro-2-[(quinolin-5-ylmethyl)thio]pyrimidine] | 0.04 µM
11 | Nc1cc(Cl)nc(SCc2ccc3ccccc3n2)n1 [Example 61, 4-amino-6-chloro-2-(2-quinolinylmethylthio)-pyrimidine] | 5 µM
12 | Cc1cc(C)nc(CSc2nc(N)cc(Cl)n2)n1 [Example 127, 4-amino-6-chloro-2-[2-(4,6-dimethyl)pyrimidinylmethylthio]-pyrimidine] | 1 µM
13 | Nc1cc(Cl)nc(SCc2ccc(Cl)s2)n1 [Example 144, 4-Amino-6-chloro-2-[(5-chlorothiophen-2-ylmethyl)thio]pyrimidine] | 5 µM
14 | Nc1cc(Cl)nc(SCC2=CCCc3ccccc32)n1 [Example 187, 4-Amino-6-chloro-2-[[(3,4-dihydro-1-naphthalenyl)methyl]thio]pyrimidine] | 0.6 µM
15 | Cc1cc(Cl)nc(CSc2nc(N)cc(Cl)n2)c1 [Example 125, 4-amino-6-chloro-2-[2-(6-chloro-4-methyl)pyridylmethylthio]-pyrimidine] | 0.05 µM
16 | COc1cccc(CSc2nc(N)cc(Cl)n2)c1 [Example 39, 4-amino-6-chloro-2-(3-methoxyphenylmethylthio)-pyrimidine] | 0.16 µM
17 | Nc1cc(Cl)nc(SCc2ccccn2)n1 [Example 55, 4-amino-6-chloro-2-(2-pyridylmethylthio)-pyrimidine] | 0.002 µM
18 | Cc1cccc(CSc2nc(N)cc(Cl)n2)n1 [Example 113, 4-amino-6-chloro-2-[2-(6-methyl)pyridylmethylthio]-pyrimidine] | 0.09 µM
19 | Nc1cc(Cl)nc(SC/C=C/c2ccccc2)n1 [Example 64, 4-amino-6-chloro-2-(E-styrylmethylthio)-pyrimidine] | 0.066 µM
20 | Cc1ccnc(CSc2nc(N)cc(Cl)n2)c1 [Example 114, 4-amino-6-chloro-2-[2-(4-methyl)pyridylmethylthio]-pyrimidine] | 0.01 µM

Row | Structure (SMILES) | IC50
21 | Cc1c(N)nc(SCc2ccc3ccccc3c2)nc1Cl [Example 90, 4-amino-5-methyl-6-chloro-2-(2-naphthylmethylthio)-pyrimidine] | 5 µM
22 | Nc1cc(Cl)nc(SCc2cccc(I)c2)n1 [Example 44, 4-amino-6-chloro-2-(3-iodophenylmethylthio)-pyrimidine] | 0.6 µM
23 | Cc1cnc(CSc2nc(N)cc(Cl)n2)cn1 [Example 175, 4-Amino-6-chloro-2-[(5-methylpyrazin-2-ylmethyl)thio]pyrimidine] | 8 µM
24 | Nc1cc(Cl)nc(SCc2ccc(F)c(F)c2)n1 [Example 48, 4-amino-6-chloro-2-(3,4-difluorophenylmethylthio)-pyrimidine] | 0.5 µM
25 | Nc1cc(Cl)nc(SCc2cc3c(cc2Cl)OCO3)n1 [Example 62, 4-amino-6-chloro-2-(6-chloro-5-piperonylmethylthio)-pyrimidine] | 0.02 µM
26 | Nc1cc(Cl)nc(SCc2ccoc2)n1 [Example 148, 4-Amino-6-chloro-2-[(furan-3-ylmethyl)thio]pyrimidine] | 10 µM
27 | Nc1cc(Cl)nc(SCc2cc(C3CC3)ccn2)n1 [Example 137, 4-amino-6-chloro-2-[2-(4-cyclopropyl)pyridylmethylthio]-pyrimidine] | 0.01 µM
28 | Cc1cccc(CSc2nccc(N)n2)c1 [Example 96, 4-amino-2-(3-methylphenylmethylthio)-pyrimidine] | 50 µM
29 | Nc1cc(Cl)nc(SCc2cc(Br)ccn2)n1 [Example 119, 4-amino-6-chloro-2-[2-(4-bromo)pyridylmethylthio]-pyrimidine] | 0.04 µM
30 | Nc1cc(Cl)nc(SCc2cc(N3CCCC3)ccn2)n1 [Example 143, 4-amino-6-chloro-2-[2-(4-pyrrolidino)pyridylmethylthio]-pyrimidine] | 0.05 µM
31 | Nc1cc(Cl)nc(SCc2cccc(Cl)n2)n1 [Example 112, 4-amino-6-chloro-2-[2-(6-chloro)pyridylmethylthio]-pyrimidine] | 0.07 µM
32 | CC(C)Oc1cccc(CSc2nc(N)cc(Cl)n2)c1 [Example 109, 4-amino-6-chloro-2-(3-isopropoxyphenylmethylthio)-pyrimidine] | 2 µM
33 | Nc1nc(SCc2ccccn2)nc(Cl)c1F [Example 92, 4-amino-5-fluoro-6-chloro-2-(2-pyridylmethylthio)-pyrimidine] | 1 µM
34 | Nc1cc(Cl)nc(SCc2cnc3ccccc3n2)n1 [Example 179, 4-Amino-6-chloro-2-[(quinoxalin-2-ylmethyl)thio]pyrimidine] | 0.5 µM
35 | Nc1cc(Cl)nc(SCc2cccc[n+]2[O-])n1 [Example 147, 2-[2-(4-amino-6-chloro)pyrimidinylthiomethyl]-pyridine-1-oxide] | 5 µM
36 | Nc1cc(Cl)nc(SCc2ccccc2)n1 [Example 34A, 4-amino-6-chloro-2-(benzylthio)-pyrimidine] | 2 µM
37 | CCc1ccc(CSc2nc(N)cc(Cl)n2)nc1 [Example 134, 4-amino-6-chloro-2-[2-(4-ethyl)pyridylmethylthio]-pyrimidine] | 0.05 µM
38 | Nc1cc(Cl)nc(SCc2ccc3cccnc3c2)n1 [Example 184, 4-Amino-6-chloro-2-[(quinolin-7-ylmethyl)thio]pyrimidine] | 3 µM
39 | C=C(C)[C@@H]1CC=C(CSc2nc(N)cc(Cl)n2)CC1 [Example 157, 4-Amino-6-chloro-2-[((S)-(--)perillyl)thio]pyrimidine] | 10 µM

Same assay, conditions: IC50 (Table I, P236L), 30 minutes at 37° C.

Row | Structure (SMILES) | IC50
40 | Nc1cc(Cl)nc(SCc2cccc3cccnc23)n1 [Example 180, 4-Amino-6-chloro-2-[(quinolin-8-ylmethyl)thio]pyrimidine] | 0.05 µM
